Assay results published in patent US3935255A, “Phenylacetic acid derivatives” (Laboratoires Jacques Logeais, priority 1973, dated 1976).
Like-named read-outs stand apart in the source and are kept apart here.

How the values were obtained:
[1] = Koster test (analgesic action); format: in vivo; conditions: po
Text: (§1) Said properties were evidenced in animals by means of conventional pharmacological tests.
Analgesic action: Koster test (cf. KOSTER and ANDERSON. Feder. Proceed., 1959, 18, 412)

[2] = system: fever induced by injection of barm; test: Antipyretic action against fever induced by injection of barm, in rats; format: in vivo; conditions: p.o.
Text: as §1
Antipyretic action, against fever induced by injection of barm, in rats.

[3] = system: carrageenin-induced edema; test: Carrageenin-induced edema in rats (anti-inflammatory action); format: in vivo; conditions: Rattus norvegicus, po
Text: as §1
(§2) Anti-inflammatory action:
carrageenin-induced edema in rats (cf. WINTER, RISLEY and MUSS, Proc. Soc. Exp. Biol. Med., 1962, 111, 544),

LD50 (acute toxicity) = conditions: in vivo
[4] = system: ultraviolet-induced erythema; test: Ultraviolet-induced erythema in guinea-pigs (anti-inflammatory action); format: in vivo; conditions: Cavia porcellus, po, read-out: UV-induced erythema ED50
Text: as §1, §2
ultraviolet-induced erythema in guinea-pigs (cf. WINTER, Arch. Int. Pharmaco., 1958, 116, 261),

[5] = system: adjuvant-induced polyarthritis; test: Adjuvant-induced polyarthritis in rats (anti-inflammatory action); format: in vivo; conditions: Rattus norvegicus, 336 h, p.o., oral dosage which decreases by at least 50% the manifestations of arthritis within 14 days
Text: as §1, §2
adjuvant-induced polyarthritis in rats, determination of the oral dosage (mg/kg/day) which decreases by at least 50% the manifestations of arthritis within 14 days.

SMILES	ED50 [1]	Antipyretic action [2]	ED40 [3]	LD50 (LD50 (acute toxicity); ip, I.P., read-out: LD50 I.P.)	LD50 (LD50 (acute toxicity); po, P.O., read-out: LD50 P.O.)	ED50 [4]	ED50 [5]
CC(C(=O)O)c1ccc(C2=CC(=NO)CCC2)cc1 (stereo not drawn) [Example 1, 2-[4-(3'-Hydroxyimino-cyclohexen-1'-yl)-phenyl]propionic acid]	30 to 50 mg/kg	30 mg·kg	2.2 mg/kg	> 100 mg/kg	> 100 mg/kg		
CC(C(=O)O)c1ccc(C2CCCC(=NO)C2)cc1 (stereo not drawn) [Example 2, 2-[4-(3'-Hydroxyimino-cyclohexyl)phenyl]propionic acid]	4.5 mg/kg	3 mg·kg	0.25 mg/kg	> 200 mg/kg	> 200 mg/kg	2 mg/kg	0.9 mg/kg
